Tested on: Aedes aegypti
Experiment: Examination of repellent activity using skin test (treated human forearm in cage of about 100 mated female mosquitoes)
Format: in vivo
Details: for Effective repellency duration (hour) (mean ± standard deviation): maximum measurement time 12 hours
Source text: Citronellic acid and geranic acid, which are used in the present invention, are commercially available or can directly be synthesized. In this embodiment, products of Aldrich Co. (product names are respectively Citronellic acid and Geranic acid) were purchased and used as citronellic acid and geranic acid. Purities of the above two compounds were examined using a gas chromatograph (GC) and a gas chromatograph-mass spectrometry (GC-MS). The compounds having purity of 99.5% or greater were only used. Respective ingredients of the above compounds were added to isopropyl alcohol of 91% to make test samples consisting of a solution in the concentration of 0.5 to 50%. The samples were used for mosquito repellent efficacy experiments.
The test samples manufactured as above underwent repellent effective experiments with respect to Aedes which is a main mosquito group attacking human.
In this embodiment, Aedes aegypti was used as test mosquitoes. The Aedes aegypti was supplied from Korea Research Institute of Bioscience and Biotechnology and reared indoor from generation to generation.
The larvae of the Aedes aegypti were reared in a plastic container of 22×14×7 cm containing distilled water with small amount of one-to-one mixture of chicken feed and yeast. Fresh mosquito pupae were transferred into a paper cup containing water and then placed in a transparent rearing cage to emerge as adults. Here, the rearing cage was constructed with metal net. Males and females of the freshly emerged mosquitoes were transferred to a rearing cage at one-to-one ratio, and left for two or three days for mating. The female mosquitoes were then used for repellency tests. Eight percent (8%) sugar water was supplied for the adult mosquitoes. The following rearing conditions were maintained: light condition of 16 h:8 h (day:night), temperature of 27±2° C., and relative humidity of 80±10%.
In order to examine effectiveness of the mosquito repellent of the prepared sample solutions, one (1) ml of a sample solution was uniformly applied, using a metal rod, on a forearm of a volunteer human test subject between wrist and elbow. Thereafter, the arm treated with the test solution was inserted in a bioassay cage, constructed with Plexiglass of 50×50×50 cm containing approximately 100 mated female mosquitoes. The number of mosquitoes trying to bite was recorded for three minutes in every thirty minutes for up to 4 hours or in every hour for up to 12 hours. The time required to get the arm bitten by two cumulative mosquitoes was regarded as effective repellency duration. A net window of 40×40 cm was present at each side and top of the Plexiglass bioassay cage to allow air ventilation. A 15×15 cm hole was prepared at the front side of the Plexiglass bioassay cage and a long net sleeve was attached to the hole so that the test arm could be put into the cage for repellency test.
At the beginning of each repellency test, an arm treated with no solvent was placed in the bioassay cage containing mosquitoes, in order to examine blood feeding activity of the mated female test mosquitoes. The repellency tests with the test solutions were carried out only when the arm was bitten by at least two mosquitoes for initial three minutes.
Repellent activity against Aedes was examined in accordance with the aforementioned method using the samples which respectively contain citronellic acid and geranic acid. Also, mosquito repellent activity was measured with solutions which contain DEET and Picadirin, wherein the DEET and Picadirin are commercially available mosquito repellents which are currently recommended by the Center for Disease Control of the United States.
In Table 4 to Table 6, the repellent efficiency was calculated using the following Equation 1.

[1] = 10% (0.25 mg/cm^3), 120 minutes
[2] = 10% (0.25 mg/cm^3), 150 minutes
[3] = 10% (0.25 mg/cm^3), 180 minutes
[4] = 10% (0.25 mg/cm^3), 210 minutes
[5] = 10% (0.25 mg/cm^3), 240 minutes
[6] = concentration 10% (0.25 mg/cm^3), time until two cumulative bites, maximum measurement time 240 minutes

**Q.** What does the source list for CC(C)=CCC/C(C)=C/C(=O)O [Geranic acid, geranic acid]?
**A.** Repellent efficiency (%) per time (minutes) (2% (0.05 mg/cm^3), 30 minutes): 100%; Repellent efficiency (%) per time (minutes) (2% (0.05 mg/cm^3), 60 minutes): 100%; Repellent efficiency (%) per time (minutes) (2% (0.05 mg/cm^3), 90 minutes): 100%; Repellent efficiency (%) per time (minutes) (2% (0.05 mg/cm^3), 120 minutes): 100%; Repellent efficiency (%) per time (minutes) (2% (0.05 mg/cm^3), 150 minutes): 83.3%; Repellent efficiency (%) per time (minutes) (2% (0.05 mg/cm^3), 180 minutes): 50.0%; Repellent efficiency (%) per time (minutes) (2% (0.05 mg/cm^3), 210 minutes): 50.0%; Repellent efficiency (%) per time (minutes) (2% (0.05 mg/cm^3), 240 minutes): 33.3%; Repellent efficiency (%) per time (minutes) (10% (0.25 mg/cm^3), 30 minutes): 100%; Repellent efficiency (%) per time (minutes) (10% (0.25 mg/cm^3), 60 minutes): 100%; Repellent efficiency (%) per time (minutes) (10% (0.25 mg/cm^3), 90 minutes): 100%; Repellent efficiency (%) per time (minutes) [1]: 100%; Repellent efficiency (%) per time (minutes) [2]: 100%; Repellent efficiency (%) per time (minutes) [3]: 100%; Repellent efficiency (%) per time (minutes) [4]: 100%; Repellent efficiency (%) per time (minutes) [5]: 87.5%; Repellent efficiency (%) per time (hours) (15% (0.375 mg/cm^3), 1 hour): 100%; Repellent efficiency (%) per time (hours) (15% (0.375 mg/cm^3), 2 hours): 100%; Repellent efficiency (%) per time (hours) (15% (0.375 mg/cm^3), 3 hours): 100%; Repellent efficiency (%) per time (hours) (15% (0.375 mg/cm^3), 4 hours): 81.8%; Repellent efficiency (%) per time (hours) (15% (0.375 mg/cm^3), 5 hours): 72.7%; Repellent efficiency (%) per time (hours) (15% (0.375 mg/cm^3), 6 hours): 54.5%; Repellent efficiency (%) per time (hours) (15% (0.375 mg/cm^3), 7 hours): 54.5%; Repellent efficiency (%) per time (hours) (15% (0.375 mg/cm^3), 8 hours): 54.5%; Repellent efficiency (%) per time (hours) (15% (0.375 mg/cm^3), 9 hours): 45.5%; Repellent efficiency (%) per time (hours) (30% (0.75 mg/cm^3), 1 hour): 100%; Repellent efficiency (%) per time (hours) (30% (0.75 mg/cm^3), 2 hours): 100%; Repellent efficiency (%) per time (hours) (30% (0.75 mg/cm^3), 3 hours): 100%; Repellent efficiency (%) per time (hours) (30% (0.75 mg/cm^3), 4 hours): 100%; Repellent efficiency (%) per time (hours) (30% (0.75 mg/cm^3), 5 hours): 100%; Repellent efficiency (%) per time (hours) (30% (0.75 mg/cm^3), 6 hours): 85.7%; Repellent efficiency (%) per time (hours) (30% (0.75 mg/cm^3), 7 hours): 85.7%; Repellent efficiency (%) per time (hours) (30% (0.75 mg/cm^3), 8 hours): 85.7%; Repellent efficiency (%) per time (hours) (30% (0.75 mg/cm^3), 9 hours): 85.7%; Repellent efficiency (%) per time (hours) (30% (0.75 mg/cm^3), 10 hours): 85.7%; Repellent efficiency (%) per time (hours) (30% (0.75 mg/cm^3), 11 hours): 78.6%; Repellent efficiency (%) per time (hours) (30% (0.75 mg/cm^3), 12 hours): 71.4%; Repellent efficiency (%) per time (hours) (50% (1.25 mg/cm^3), 1 hour): 100%; Repellent efficiency (%) per time (hours) (50% (1.25 mg/cm^3), 2 hours): 100%; Repellent efficiency (%) per time (hours) (50% (1.25 mg/cm^3), 3 hours): 100%; Repellent efficiency (%) per time (hours) (50% (1.25 mg/cm^3), 4 hours): 100%; Repellent efficiency (%) per time (hours) (50% (1.25 mg/cm^3), 5 hours): 100%; Repellent efficiency (%) per time (hours) (50% (1.25 mg/cm^3), 6 hours): 100%; Repellent efficiency (%) per time (hours) (50% (1.25 mg/cm^3), 7 hours): 100%; Repellent efficiency (%) per time (hours) (50% (1.25 mg/cm^3), 8 hours): 100%; Repellent efficiency (%) per time (hours) (50% (1.25 mg/cm^3), 9 hours): 100%; Repellent efficiency (%) per time (hours) (50% (1.25 mg/cm^3), 10 hours): 100%; Repellent efficiency (%) per time (hours) (50% (1.25 mg/cm^3), 11 hours): 90%; Repellent efficiency (%) per time (hours) (50% (1.25 mg/cm^3), 12 hours): 80%; repellency (in words) (at the level of 0.0125 mg/cm^3): did not represent any repellency; time for which repellent efficiency of 100% was shown (at the level of 0.05 mg/cm^3): 120 min; time for which repellent efficiency of 100% was shown (at the level of 0.25 mg/cm^3): 210 min; Effective repellency duration (minute) (mean ± standard deviation) (concentration 0.5% (0.0125 mg/cm^3), time until arm bitten by two cumulative mosquitoes): 0 ± 0 min; Effective repellency duration (minute) (mean ± standard deviation) (concentration 2% (0.05 mg/cm^3), time until arm bitten by two cumulative mosquitoes): 195 ± 45.0 min; Effective repellency duration (minute) (mean ± standard deviation) (concentration 2% (0.05 mg/cm^3), time until arm bitten by two cumulative mosquitoes, listed as geranic acid): 195 min; Effective repellency duration (minute) (mean ± standard deviation) [6]: 240 ± 0 min; Effective repellency duration (minute) (mean ± standard deviation) (concentration 10% (0.25 mg/cm^3), time until two cumulative bites, maximum measurement time 240 minutes, listed as geranic acid): 240 min; Effective repellency duration (hour) (mean ± standard deviation) (concentration 15% (0.375 mg/cm^3)): 6.7 ± 1.20 h; Effective repellency duration (hour) (mean ± standard deviation) (concentration 30% (0.75 mg/cm^3)): 10.0 ± 2.00 h; Effective repellency duration (hour) (mean ± standard deviation) (concentration 30% (0.75 mg/cm^3), listed as geranic acid): 10 h; Effective repellency duration (hour) (mean ± standard deviation) (concentration 50% (1.25 mg/cm^3)): 12.0 ± 0 h; Effective repellency duration (hour) (mean ± standard deviation) (concentration 50% (1.25 mg/cm^3), listed as geranic acid): 12 h; repellent efficiency (for 10 hours at the level of 0.75 mg/cm^3): ~90%; repellent efficiency (for 10 hours at the level of 1.25 mg/cm^3): 100%

**Q.** CCC(C)OC(=O)N1CCCCC1CCO (stereo not drawn) [Picadirin, reference compound] was tested. Which “Repellent efficiency (%) per time (minutes)” value (10% (0.25 mg/cm^3), 30 minutes) did it give?
**A.** 85.0%

**Q.** And the “Repellent efficiency (%) per time (minutes)” value (10% (0.25 mg/cm^3), 60 minutes)?
**A.** 85.0%

**Q.** And the “Repellent efficiency (%) per time (minutes)” value (10% (0.25 mg/cm^3), 90 minutes)?
**A.** 85.0%

**Q.** And the “Repellent efficiency (%) per time (minutes)” value [1]?
**A.** 80.0%

**Q.** What about the “Repellent efficiency (%) per time (minutes)” value [2] of the same molecule?
**A.** 75.0%

**Q.** And the “Repellent efficiency (%) per time (minutes)” value [3]?
**A.** 72.5%

**Q.** What about the “Repellent efficiency (%) per time (minutes)” value [4] of the same molecule?
**A.** 62.5%

**Q.** And the “Repellent efficiency (%) per time (minutes)” value [5]?
**A.** 47.5%

**Q.** And the “time for which repellent efficiency of 100% was shown” value (at the level of 0.25 mg/cm^3)?
**A.** less than 30 minutes

**Q.** What about the “Effective repellency duration (minute) (mean ± standard deviation)” value [6] of the same molecule?
**A.** 158 min

**Q.** And the “Effective repellency duration (minute) (mean ± standard deviation)” value (concentration 10% (0.25 mg/cm^3), time until two cumulative bites, maximum measurement time 240 minutes, listed as Picadrin)?
**A.** 158 ± 27.5 min
